Source: ChEMBL document CHEMBL6134905, “Double Swords in One: Novel Selective PI3K/110β PROTAC Degraders for the Treatment of Multidrug-Resistant Cancer by Activating ERS and Inhibiting P-gp” (J Med Chem, 2025)
Active and inactive are the calls of the source.

Tests used:
[1] = target: T1, von Hippel-Lindau disease tumor suppressor/Phosphatidylinositol 4,5-bisphosphate 3-kinase catalytic subunit beta isoform (Homo sapiens, UniProt P42338+P40337); assay: PROTAC activity at PI3K-p110beta/VHL in human A549/DDP cells assessed as reduction in PI3K-p110beta level at 25 uM incubated for 24 hrs by Western blot analysis relative to control; assay type: cell-based; design: scale not given: the % may be the effect or the level left
Target sequence in this assay (P40337 whole entry, looked up, canonical isoform): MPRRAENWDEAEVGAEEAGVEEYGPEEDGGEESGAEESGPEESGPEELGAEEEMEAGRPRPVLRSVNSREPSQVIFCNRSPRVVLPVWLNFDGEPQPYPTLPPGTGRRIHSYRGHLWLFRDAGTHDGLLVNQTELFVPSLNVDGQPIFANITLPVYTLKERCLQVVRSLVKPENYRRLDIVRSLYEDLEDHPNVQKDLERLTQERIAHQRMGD
Target sequence in this assay (P42338 whole entry, looked up, canonical isoform): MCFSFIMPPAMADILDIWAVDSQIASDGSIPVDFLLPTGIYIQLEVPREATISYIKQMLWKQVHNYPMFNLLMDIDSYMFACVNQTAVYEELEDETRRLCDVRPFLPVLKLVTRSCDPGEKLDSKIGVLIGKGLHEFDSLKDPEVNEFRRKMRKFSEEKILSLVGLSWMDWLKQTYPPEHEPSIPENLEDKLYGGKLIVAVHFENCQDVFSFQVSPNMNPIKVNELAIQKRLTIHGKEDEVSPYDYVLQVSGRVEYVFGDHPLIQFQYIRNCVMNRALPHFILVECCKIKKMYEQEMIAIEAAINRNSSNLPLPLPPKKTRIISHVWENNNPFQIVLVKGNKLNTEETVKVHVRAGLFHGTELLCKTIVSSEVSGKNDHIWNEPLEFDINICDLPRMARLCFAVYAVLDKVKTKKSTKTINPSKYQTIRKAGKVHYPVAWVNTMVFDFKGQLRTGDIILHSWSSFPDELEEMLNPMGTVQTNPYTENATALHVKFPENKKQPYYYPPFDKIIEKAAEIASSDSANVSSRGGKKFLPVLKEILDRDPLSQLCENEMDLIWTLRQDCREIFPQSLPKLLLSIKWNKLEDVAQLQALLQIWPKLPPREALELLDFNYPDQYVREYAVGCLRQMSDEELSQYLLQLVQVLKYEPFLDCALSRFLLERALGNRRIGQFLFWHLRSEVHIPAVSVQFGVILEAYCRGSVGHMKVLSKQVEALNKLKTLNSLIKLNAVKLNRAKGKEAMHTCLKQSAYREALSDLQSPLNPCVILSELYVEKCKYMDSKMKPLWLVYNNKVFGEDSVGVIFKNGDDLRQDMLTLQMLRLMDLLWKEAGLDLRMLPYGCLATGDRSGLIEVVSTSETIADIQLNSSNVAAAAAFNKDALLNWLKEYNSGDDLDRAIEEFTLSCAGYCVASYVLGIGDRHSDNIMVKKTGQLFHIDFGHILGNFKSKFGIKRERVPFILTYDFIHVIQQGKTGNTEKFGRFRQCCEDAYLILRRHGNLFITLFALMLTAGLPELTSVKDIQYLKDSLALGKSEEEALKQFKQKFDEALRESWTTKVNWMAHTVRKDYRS

MCF7/ADM [2] = assay: Induction of apoptosis in human MCF7/ADM cells assessed as decrease in bcl-2 expression at 12.5 uM incubated for 24 hrs by Western blot analysis; assay type: functional, cell-based
[3] = target: T1, von Hippel-Lindau disease tumor suppressor/Phosphatidylinositol 4,5-bisphosphate 3-kinase catalytic subunit beta isoform; assay: PROTAC activity at PI3K-p110beta/VHL in human A549/DDP cells assessed as reduction in PI3K-p110beta level by Western blot analysis; assay type: cell-based; conditions: time <= 48.0 hrs
Target sequence in this assay (P40337 whole entry, looked up, canonical isoform): as the sequence (P40337 whole entry, looked up, canonical isoform) above
Target sequence in this assay (P42338 whole entry, looked up, canonical isoform): as the sequence (P42338 whole entry, looked up, canonical isoform) above

A549/CDDP [4] = assay: Upregulation of PERK expression in human A549/DDP cells at 0.25 to 25 uM incubated for 24 hrs by Western blot analysis; assay type: functional, cell-based; conditions: dose 0.25-25 µM
MCF7/ADM [5] = assay: Antitumor activity against human MCF7/ADM cells xenografted in BALB/c mouse assessed as reduction in p-gp expression in tumor at 50 mg/kg, ip by Western blot analysis; assay type: functional, organism-based
A549/CDDP [6] = assay: Induction of apoptosis in human A549/DDP cells at 25 uM incubated for 24 hrs by Annexin V-FITC/PI staining based flow cytometry analysis (reference value: 4.27%); assay type: functional
A549/CDDP [7] = assay: Induction of apoptosis in human A549/DDP cells assessed as increase in caspase-8 expression at 12.5 uM incubated for 24 hrs by Western blot analysis; assay type: functional, cell-based
MCF7/ADM [8] = assay: Antitumor activity against human MCF7/ADM cells xenografted in BALB/c mouse assessed as downregulation of p110alpha level in tumor at 50 mg/kg, ip; assay type: functional, organism-based
Mitochondrial membrane [9] = assay: Induction of mitochondrial membrane potential loss in human A549/DDP cells assessed as increase in green fluorescence at 25 uM incubated for 48 hrs by JC-1 staining based flow cytometry
MCF7/ADM [10] = assay: Antitumor activity against human MCF7/ADM cells xenografted in BALB/c mouse assessed as reduction in p-110beta expression in tumor at 50 mg/kg, ip by Western blot analysis; assay type: functional, organism-based
[11] = target: T1, von Hippel-Lindau disease tumor suppressor/Phosphatidylinositol 4,5-bisphosphate 3-kinase catalytic subunit beta isoform; assay: PROTAC activity at PI3K-p110beta/VHL in human MCF7/ADM cells assessed as reduction in PI3K-p110beta level incubated for 2 hrs by Western blot analysis; assay type: cell-based
Target sequence in this assay (P40337 whole entry, looked up, canonical isoform): as the sequence (P40337 whole entry, looked up, canonical isoform) above
Target sequence in this assay (P42338 whole entry, looked up, canonical isoform): as the sequence (P42338 whole entry, looked up, canonical isoform) above

MCF7/ADM [12] = assay: Antitumor activity against human MCF7/ADM cells xenografted in BALB/c mouse assessed as effect on PTEN expression in tumor at 50 mg/kg, ip by Western blot analysis; assay type: functional, organism-based
MCF7/ADM [13] = assay: Antitumor activity against human MCF7/ADM cells xenografted in BALB/c mouse assessed as increase in bax expression in tumor at 50 mg/kg, ip by Western blot analysis; assay type: functional, organism-based
A549/CDDP [14] = assay: Cytotoxicity against human A549/DDP cells at 100 uM incubated for 24 hrs; assay type: functional, cell-based
MCF7/ADM [15] = assay: Antitumor activity against human MCF7/ADM cells xenografted in BALB/c mouse assessed as increase in pIRE1 expression in tumor at 50 mg/kg, ip by Western blot analysis; assay type: functional, organism-based
MCF7/ADM [16] = assay: Antitumor activity against human MCF7/ADM cells xenografted in BALB/c mouse assessed as increase in PERK expression in tumor at 50 mg/kg, ip by Western blot analysis; assay type: functional, organism-based
[17] = target: T1, von Hippel-Lindau disease tumor suppressor/Phosphatidylinositol 4,5-bisphosphate 3-kinase catalytic subunit beta isoform; assay: PROTAC activity at PI3K-p110beta/VHL in human MCF7/ADM cells assessed as induction of PI3K-p110beta degradation incubated for 24 hrs by Western blot analysis; assay type: cell-based
Target sequence in this assay (P42338 whole entry, canonical isoform): as the sequence (P42338 whole entry, looked up, canonical isoform) above
Target sequence in this assay (P40337 whole entry, canonical isoform): as the sequence (P40337 whole entry, looked up, canonical isoform) above

[18] = Toxicity in BALB/c mouse xenografted with human MCF7/ADM cells assessed as tumor damage at 50 mg/kg, ip by H and E staining based analysis; assay type: organism-based; conditions: in vivo
MCF7/ADM [19] = assay: Antitumor activity against human MCF7/ADM cells xenografted in BALB/c mouse assessed as increase in caspase-12 expression in tumor at 50 mg/kg, ip by Western blot analysis; assay type: functional, organism-based
[20] = Toxicity in BALB/c mouse xenografted with human MCF7/ADM cells assessed as change in AST level at 50 mg/kg, ip; assay type: organism-based; conditions: in vivo
Mitochondrial membrane [21] = assay: Induction of mitochondrial membrane potential loss in human MCF7/ADM cells assessed as increase in green fluorescence at 25 uM incubated for 48 hrs by JC-1 staining based flow cytometry
[22] = target: T1, von Hippel-Lindau disease tumor suppressor/Phosphatidylinositol 4,5-bisphosphate 3-kinase catalytic subunit beta isoform; assay: PROTAC activity at PI3K-p110beta/VHL in human MCF7/ADM cells assessed as reduction in PI3K-p110beta level at 25 uM measured for 24 hrs by Western blot analysis; assay type: cell-based
Target sequence in this assay (P40337 whole entry, looked up, canonical isoform): as above
Target sequence in this assay (P42338 whole entry, looked up, canonical isoform): as the sequence (P42338 whole entry, looked up, canonical isoform) above

[23] = target: T1, von Hippel-Lindau disease tumor suppressor/Phosphatidylinositol 4,5-bisphosphate 3-kinase catalytic subunit beta isoform; assay: PROTAC activity at PI3K-p110beta/VHL in human A549/DDP cells assessed as reduction in PI3K-p110beta level incubated for 24 hrs by Western blot analysis; assay type: cell-based
MCF7/ADM [24] = assay: Induction of oxidative stress in human MCF7/ADM cells at 25 uM measured for 24 hrs; assay type: functional, cell-based
A549/CDDP [25] = assay: Antitumor activity against human A549/DDP cells assessed as cell viability incubated for 24 hrs by MTT assay; assay type: functional, cell-based
[26] = target: T2, von Hippel-Lindau disease tumor suppressor/Phosphatidylinositol 4,5-bisphosphate 3-kinase catalytic subunit alpha isoform (Homo sapiens, UniProt P42336+P40337); assay: PROTAC activity at PI3K-p110alpha/VHL in human A549/DDP cells assessed as reduction in PI3K-p110alpha mRNA level at 25 uM measured for 24 hrs by qRT-PCR analysis; assay type: cell-based
MCF7/ADM [27] = assay: Induction of apoptosis in human MCF7/ADM cells assessed as increase in cleaved caspase-8 expression at 12.5 uM incubated for 24 hrs by Western blot analysis; assay type: functional, cell-based
A549/CDDP [28] = assay: Induction of apoptosis in human A549/DDP cells assessed as increase in cleaved caspase-3 expression at 12.5 uM incubated for 24 hrs by Western blot analysis; assay type: functional, cell-based
A549/CDDP [29] = assay: Upregulation of p-IRE1 expression in human A549/DDP cells at 0.25 to 25 uM incubated for 24 hrs by Western blot analysis; assay type: functional, cell-based; conditions: dose 0.25-25 µM
[30] = target: T2, von Hippel-Lindau disease tumor suppressor/Phosphatidylinositol 4,5-bisphosphate 3-kinase catalytic subunit alpha isoform; assay: PROTAC activity at PI3K-p110alpha/VHL in human MCF7/ADM cells assessed as reduction in PI3K-p110alpha level incubated for 24 hrs by Western blot analysis; assay type: cell-based; conditions: dose 0.04-50 µM
[31] = Induction of apoptosis in human MCF7/ADM cells at 6.25 uM incubated for 24 hrs by Annexin V-FITC/PI staining based flow cytometry analysis (reference value: 5.20%); assay type: functional
[32] = target: T2, von Hippel-Lindau disease tumor suppressor/Phosphatidylinositol 4,5-bisphosphate 3-kinase catalytic subunit alpha isoform; assay: PROTAC activity at PI3K-p110alpha/VHL in human MCF7/ADM cells assessed as reduction in PI3K-p110alpha mRNA level at 25 uM measured for 24 hrs by qRT-PCR analysis; assay type: cell-based
[33] = Induction of apoptosis in human MCF7/ADM cells at 12.5 uM incubated for 24 hrs by Annexin V-FITC/PI staining based flow cytometry analysis (reference value: 5.20%); assay type: functional
[34] = target: T1, von Hippel-Lindau disease tumor suppressor/Phosphatidylinositol 4,5-bisphosphate 3-kinase catalytic subunit beta isoform; assay: PROTAC activity at PI3K-p110beta/VHL in human MCF7/ADM cells assessed as reduction in PI3K-p110beta level at 25 uM incubated for 24 hrs by Western blot analysis relative to control; assay type: cell-based; design: scale not given: the % may be the effect or the level left
Target sequence in this assay (P40337 whole entry, looked up, canonical isoform): as the sequence (P40337 whole entry, looked up, canonical isoform) above
Target sequence in this assay (P42338 whole entry, looked up, canonical isoform): as the sequence (P42338 whole entry, looked up, canonical isoform) above

T2 sequence (P40337 whole entry, looked up, canonical isoform): as the sequence (P40337 whole entry, looked up, canonical isoform) above
T2 sequence (P42336 whole entry, looked up, canonical isoform): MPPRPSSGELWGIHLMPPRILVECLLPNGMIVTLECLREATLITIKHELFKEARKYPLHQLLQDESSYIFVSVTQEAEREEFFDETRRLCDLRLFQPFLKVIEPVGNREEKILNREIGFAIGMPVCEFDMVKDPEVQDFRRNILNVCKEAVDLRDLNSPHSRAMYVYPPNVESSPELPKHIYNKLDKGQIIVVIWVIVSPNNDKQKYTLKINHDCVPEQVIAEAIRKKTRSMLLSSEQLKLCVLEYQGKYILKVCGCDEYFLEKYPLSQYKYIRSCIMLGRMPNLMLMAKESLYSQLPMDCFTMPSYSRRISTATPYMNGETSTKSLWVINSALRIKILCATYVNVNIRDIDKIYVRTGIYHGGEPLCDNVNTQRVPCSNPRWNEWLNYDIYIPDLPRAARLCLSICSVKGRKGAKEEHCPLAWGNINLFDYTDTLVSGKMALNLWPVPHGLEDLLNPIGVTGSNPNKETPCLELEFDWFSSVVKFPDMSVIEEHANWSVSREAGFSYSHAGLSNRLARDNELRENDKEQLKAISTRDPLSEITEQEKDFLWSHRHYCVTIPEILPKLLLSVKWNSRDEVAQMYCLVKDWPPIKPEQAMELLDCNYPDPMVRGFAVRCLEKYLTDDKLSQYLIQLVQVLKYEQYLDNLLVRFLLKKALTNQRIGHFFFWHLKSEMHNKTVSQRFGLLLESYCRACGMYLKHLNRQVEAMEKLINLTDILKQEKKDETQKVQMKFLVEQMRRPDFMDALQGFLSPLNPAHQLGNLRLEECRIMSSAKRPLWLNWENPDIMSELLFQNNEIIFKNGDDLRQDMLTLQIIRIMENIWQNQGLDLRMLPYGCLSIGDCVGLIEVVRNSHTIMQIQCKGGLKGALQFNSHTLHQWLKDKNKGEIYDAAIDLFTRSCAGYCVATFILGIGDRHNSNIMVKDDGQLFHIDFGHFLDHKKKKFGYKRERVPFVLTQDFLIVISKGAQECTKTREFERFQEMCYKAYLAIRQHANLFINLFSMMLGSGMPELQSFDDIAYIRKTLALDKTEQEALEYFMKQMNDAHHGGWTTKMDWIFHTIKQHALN

Cc1cc(C(C)Nc2ccccc2C(=O)NCCCCCCC(=O)N[C@H](C(=O)N2C[C@H](O)C[C@H]2C(=O)NCc2ccc(-c3scnc3C)cc2)C(C)(C)C)c2nc(N3CCOCC3)cc(=O)n2c1 (stereo partly drawn)
23.83%: Activity (A549/CDDP [6])
Non-toxic: Activity [18] | Activity [20]
1.26 µM: DC50 [17]
2.19 µM: DC50 [23]
inactive: Activity (MCF7/ADM [12]) | Activity [26]
active: Activity (MCF7/ADM [2]) | Activity [3] Time-dependent-effect | Activity (A549/CDDP [4]) | Activity (MCF7/ADM [5]) | Activity (A549/CDDP [7]) | Activity (MCF7/ADM [8]) | Activity (Mitochondrial membrane [9]) | Activity (MCF7/ADM [10]) | Activity [11] | Activity (MCF7/ADM [13]) | Activity (A549/CDDP [14]) | Activity (MCF7/ADM [15]) | Activity (MCF7/ADM [16]) | Activity (MCF7/ADM [19]) | Activity (Mitochondrial membrane [21]) | Activity [22] | Activity (MCF7/ADM [24]) | Activity (MCF7/ADM [27]) | Activity (A549/CDDP [28]) | Activity (A549/CDDP [29])
88%: Activity [1]
39.2 µM: IC50 (A549/CDDP [25])

Cc1cc(C(C)Nc2ccccc2C(=O)NCCOCCOCCC(=O)N[C@H](C(=O)N2C[C@H](O)C[C@H]2C(=O)NCc2ccc(-c3scnc3C)cc2)C(C)(C)C)c2nc(N3CCOCC3)cc(=O)n2c1 (stereo partly drawn)
6.88%: Activity [31]
inactive: Activity (MCF7/ADM [12])
15.59%: Activity [33]
43.1 µM: IC50 (A549/CDDP [25])
active: Activity [30] Dose-dependent-effect | Activity (MCF7/ADM [2]) | Activity [3] Time-dependent-effect | Activity (A549/CDDP [4]) | Activity (MCF7/ADM [5]) | Activity (A549/CDDP [7]) | Activity (MCF7/ADM [8]) | Activity (Mitochondrial membrane [9]) | Activity (MCF7/ADM [10]) | Activity [11] | Activity (MCF7/ADM [13]) | Activity [32] | Activity (MCF7/ADM [15]) | Activity (MCF7/ADM [16]) | Activity (MCF7/ADM [19]) | Activity (Mitochondrial membrane [21]) | Activity [22] | Activity ([23]; dose 0.04-50 µM) Dose-dependent-effect | Activity (MCF7/ADM [24]) | Activity (MCF7/ADM [27]) | Activity (A549/CDDP [28]) | Activity (A549/CDDP [29])
Non-toxic: Activity [18] | Activity [20]
75%: Activity [34]
